Several values for one entry are separate records, joined by “and”; a condition that tells them apart may be missing. Equal entries are not always repeated.
How the values were obtained:
[1] = tested on: KAP liver metastasis in Rag2^−/− mice; experiment: survival of Rag2^−/− mice with KAP liver metastasis; assay type: in vivo, mouse
Procedure: (§3) Subcutaneous injection, splenic seeding or cecum injection of organoids was performed in 8–10-week-old C57BL/6 N/Crl, Rag2^−/− (B6.Cg-Rag2^tm1.1Cgn/J), or CB17 Scid beige (CB17.Cg-Prkdc^scidLyst^bg-J/Crl) mice, obtained from Charles River. The organoids were dissociated into single cells, washed with PBS and injected in a 1:1 mixture of PBS and Matrigel. For murine organoids, 1 × 10^5 cells were injected into the left and right flanks or the spleen capsule and 2 × 10^6 cells were injected into the cecum wall. For human organoids, 4 × 10^5 cells were injected into the flanks of CB17 Scid beige mice. For splenic seeding and cecum injection, mice were anaesthetized using ketamine (100 mg kg^−1, intraperitoneally) and xylazin (10 mg/kg, intraperitoneally) in NaCl and a small laparotomy below the thorax was performed.
(§4) No mice were excluded during treatment studies.

immune cells = experiment: FACS quantification of immune cells in blood, spleen, liver and tumors of treated mice;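 on CD4+, % of CD3+ cells: blood spleen or tumors of KAP liver metastasis mice after 4 days treatment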;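 on CD69+ % of CD4+ T cells: tumor-free livers or KAP liver tumors after 4 days treatment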;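 on CD69+ % of CD8+ T cells: tumor-free livers or KAP liver tumors after 4 days treatment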;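 on CD69+ % of T cells: tumor-free livers or KAP liver tumors after 4 days treatment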;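 on CD8+, % of CD3+ cells: blood spleen or tumors of KAP liver metastasis mice after 4 days treatment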; assay type: in vivo, mouse; details: for CD4+, % of CD3+ cells / CD8+, % of CD3+ cells / CD69+ % of CD4+ T cells / CD69+ % of CD8+ T cells / CD69+ % of T cells: single animals; for CD4+, % of CD3+ cells / CD8+, % of CD3+ cells: Fig. 6f; for CD69+ % of CD4+ T cells / CD69+ % of CD8+ T cells / CD69+ % of T cells: Fig. 6g; for B cells, % of living cells / CD4+ T cells, % of living cells / CD8+ T cells, % of living cells / Dendritic cells, % of living cells / Granulocytes, % of living cells / Monocytes, % of living cells / NK cells, % of living cells / T cells, % of living cells: spleen, 4 d of treatment
Procedure: To determine immune cells, cell suspensions of peripheral blood, spleen, liver or tumors were prepared. Cells were lysed with ammonium chloride buffer ([…], 0.1 mM EDTA and 0.150 mM KHCO3) to eliminate erythrocytes and were stained with antibodies from Biolegend and the live–dead fixable aqua dead cell stain kit (Thermo Fisher Scientific; dilution: 1:1,000). All used antibodies and dilutions are listed in the Nature Portfolio Reporting Summary. Cells were analyzed with the LSR Fortessa (BD). Samples were gated on single viable cells and the percentage of NK cells (NK1.1^+CD3^−), T cells (CD3^+NK1.1^−), CD4^+ T cells (CD3^+NK1.1^−CD4^+CD8a^−), CD8^+ T cells (CD3^+NK1.1^−CD8a^+CD4^−), B cells (CD3^−NK1.1^−CD19^+Ly6G^−), dendritic cells (CD3^−NK1.1^−CD19^−CD11c^+), monocytes (CD3^−NK1.1^−CD19^−CD11c^−Ly6Ghigh^+CD16/32low^+) and granulocytes (CD3^−NK1.1^−CD19^−CD11c^−Ly6G^+CD16/32high^+) was calculated.

[2] = cell viability in healthy human colon organoids SCC311; assay type: cell-based; details: female, human, ED Fig. 10f, replicates
Procedure: (§1) Primary tumor material was chopped, washed in ice-cold medium and transferred into basic medium (Supplementary Table 17), supplemented with 2.5 mg ml^−1 collagenase II (Thermo Fisher Scientific), 2.5 mg ml^−1 collagenase XI (Sigma-Aldrich), 1 mg ml^−1 Dispase II (Sigma-Aldrich), 100 µg ml^−1 DNase I and 10.5 µM Y-27632 dihydrochloride (Invitrogen). Tumor digestion was performed at 37 °C and stopped by adding medium containing 10% FBS. The mixture was centrifuged for 5 min at 300g. Red blood cells were removed with ACK lysing buffer (Thermo Fisher Scientific; 5 min at room temperature) and the pellet was resuspended in medium. Approximately 1,000 cells were resuspended and plated in 50 µl of Cultrex RGF BME, type 2 (R&D Systems). The ascites material was pelleted by centrifugation at 300g and washed three times with ice-cold PBS. Human CRC organoids were cultured in human CRC medium (Supplementary Table 17) at 37 °C and 7% CO2. Within the first week, the medium was supplemented with 10.5 µM Y-27632 dihydrochloride (Invitrogen). The human colon organoids (SCC311 and SCC321) were purchased from Sigma-Aldrich and cultured in human colon medium (Supplementary Table 17) at 37 °C and 7% CO2. They were derived from participants with the following sex and age: […].
(§2) For in vitro treatment studies, organoids were mechanically dissociated and digested using TrypLE supplemented with 100 µg ml^−1 DNaseI and 10.5 µM Y-27632 dihydrochloride (Invitrogen) at 37 °C. A total of 1,000–2,000 single cells were plated per well in white 96-well plates (Greiner) in culture medium containing 10% GFR Matrigel or Cultrex BME. The treatment with doxycycline (5 µg ml^−1), pharmacological inhibitors or corresponding volumes of DMSO was started 24 h after plating. Doxycycline was obtained from Sigma-Aldrich. […] Cell viability was measured by means of CellTiter-Glo 3D or CellTiter-Glo 2.0 reagent (Promega) according to the manufacturers’ instructions and the Infinite M Plex reader (Tecan, i-control version 3.9.1 software). Results were normalized to vehicle (DMSO) or to shNC. For cell-doubling assays, the cell number was quantified at the corresponding time points using Guava EasyCyte flow cytometer (Luminex, CytoSoft v5.2 software).

[3] = tested on: SCC311 human colon organoids; experiment: as above; assay type: cell-based; details: for Cell viability (%): ED Fig. 10f, replicates
Procedure: as §1, §2

KAP^2D cells = experiment: SA-β-Gal senescence staining and senescence markers in CRC cells and organoids; assay type: cell-based, mouse; details: 5 days
Procedure: SA-β-Gal staining was carried out on sections of snap-frozen tumor tissues. The samples were fixed with 0.5% glutaraldehyde solution (in PBS pH 7.4) for 15 min at room temperature and then washed once with PBS and twice with 1 mM MgCl2 in PBS pH 5.5 (5 min each, at room temperature). Subsequently, the samples were incubated with X-Gal solution (2.45 mM X-Gal, 5 mM K3Fe(CN)6, 5 mM K4Fe(CN)6 and 1 mM MgCl2 in PBS pH 5.5) at 37 °C overnight protected from light. Upon staining, the samples were washed three times with PBS (5 min each), fixed with 4% formalin in PBS for 30 min and again washed with PBS (5 min each, at room temperature).
Immunofluorescence staining on cells and organoids was performed on glass coverslips or tissue culture chambers (Sarstedt). Organoids were plated in medium containing 10% Matrigel or Cultrex BME. The cultures were fixed with 4% paraformaldehyde and stained with specific antibodies and DAPI (Vector Labs). All used antibodies and dilutions are listed in the Nature Portfolio Reporting Summary. For analyzing DNA synthesis, the Molecular Probes Click-iT EdU Alexa Fluor 555 kit was used 24 h after EdU incorporation with DAPI counterstaining. SA-β-Gal staining of cells was performed in cell culture dishes (cells) or tissue culture chambers (organoids) after fixation with 0.5% glutaraldehyde as described above. […]

KMP primary CRCs = experiment: survival of mice with KMP primary CRCs (cecum injection); assay type: in vivo, mouse
Procedure: as §3, §4

Q: With `CNC(=O)c1ccc2c(c1)C(=O)c1ccc(Nc3ccc(F)c(NC(=O)C4CC4)c3)cc1CC2` [Compound 2015] as the compound, how does the “treatment response in Rag2^−/− mice (in words)” value ([1]; KAP liver metastasis) read?
A: The value was “strong treatment response”.

Q: And the Survival ([1]; single animals, 1 = event, Fig. 6i)?
A: The Survival was 40 d of treatment and 34 d of treatment and 32 d of treatment and 39 d of treatment and 38 d of treatment and 25 d of treatment.

Q: What about the “CD4^+ T cells in CRC liver metastases (in words)” value (immune cells; 4 days of treatment) of the same compound?
A: The value was “increases the number of CD4^+ T cells”.

Q: And the “CD4+, % of CD3+ cells” value (immune cells; Blood)?
A: Its value is 59.0% and 54.5% and 53.0% and 56.9%.

Q: And the “CD8+, % of CD3+ cells” value (immune cells; Blood)?
A: Its value is 35.8% and 35.1% (2×) and 39.0%.

Q: What about the “CD69+ % of CD4+ T cells” value (immune cells; Liver) of the same compound?
A: The value was 11.90% and 8.89% and 6.59% and 10.70%.

Q: And the “CD69+ % of CD8+ T cells” value (immune cells; Liver)?
A: Its value is 5.92% and 8.71% and 6.52% and 6.93%.

Q: And the “CD69+ % of T cells” value (immune cells; Liver)?
A: The value was 9.86% and 8.16% and 6.40% and 10.30%.

Q: What about the “CD4+, % of CD3+ cells” value (immune cells; Spleen) of the same compound?
A: The value was 67.8% and 63.7% and 64.1% and 65.2%.

Q: What about the “CD8+, % of CD3+ cells” value (immune cells; Spleen) of the same compound?
A: The value was 25.5% and 28.8% and 28.3% and 27.0%.

Q: And the “CD4+, % of CD3+ cells” value (immune cells; Tumor)?
A: Its value is 74.4% and 79.8% and 62.9%.

Q: And the “CD8+, % of CD3+ cells” value (immune cells; Tumor)?
A: The value was 13.6% and 8.5% and 20.0%.

Q: And the “CD69+ % of CD4+ T cells” value (immune cells; Tumor)?
A: Its value is 56.80% and 69.90% and 47.60%.

Q: What about the “CD69+ % of CD8+ T cells” value (immune cells; Tumor) of the same compound?
A: The value was 44.60% and 54.20% and 52.00%.

Q: And the “CD69+ % of T cells” value (immune cells; Tumor)?
A: Its value is 49.80% and 60.30% and 42.10%.

Q: And the “B cells, % of living cells” value (immune cells; healthy mice)?
A: The value was 45.80% and 42.90% and 40.80% and 40.90%.

Q: What about the “CD4+ T cells, % of living cells” value (immune cells; healthy mice) of the same compound?
A: Its value is 22.70% and 22.50% and 25.00% and 24.30%.

Q: And the “CD8+ T cells, % of living cells” value (immune cells; healthy mice)?
A: Its value is 10.00% and 8.13% and 10.80%.

Q: And the “Dendritic cells, % of living cells” value (immune cells; healthy mice)?
A: The value was 2.32% and 3.09% and 2.65% and 2.11%.

Q: What about the “Granulocytes, % of living cells” value (immune cells; healthy mice) of the same compound?
A: Its value is 4.12% and 5.18% and 4.35% and 4.21%.

Q: What about the “Monocytes, % of living cells” value (immune cells; healthy mice) of the same compound?
A: Its value is 2.59% and 2.56% and 2.30% and 2.36%.

Q: What about the “NK cells, % of living cells” value (immune cells; healthy mice) of the same compound?
A: The value was 2.30% and 4.22% and 4.00% and 4.77%.

Q: What about the “T cells, % of living cells” value (immune cells; healthy mice) of the same compound?
A: Its value is 35.20% and 32.90% and 37.90% and 36.50%.

Q: What about the “B cells, % of living cells” value (immune cells; tumor mice (KAP metastases)) of the same compound?
A: The value was 40.60% and 49.20% and 45.00% and 44.10%.

Q: What about the “CD4+ T cells, % of living cells” value (immune cells; tumor mice (KAP metastases)) of the same compound?
A: The value was 26.10% and 18.70% and 20.10% and 20.40%.

Q: And the “CD8+ T cells, % of living cells” value (immune cells; tumor mice (KAP metastases))?
A: The value was 9.80% and 8.43% and 8.87% and 8.45%.

Q: And the “Dendritic cells, % of living cells” value (immune cells; tumor mice (KAP metastases))?
A: The value was 3.14% and 2.58% and 3.53% and 2.01%.

Q: What about the “Granulocytes, % of living cells” value (immune cells; tumor mice (KAP metastases)) of the same compound?
A: The value was 3.71% and 4.06% and 4.14% and 4.54%.

Q: What about the “Monocytes, % of living cells” value (immune cells; tumor mice (KAP metastases)) of the same compound?
A: Its value is 3.31% and 3.61% and 4.85% and 6.16%.

Q: What about the “NK cells, % of living cells” value (immune cells; tumor mice (KAP metastases)) of the same compound?
A: Its value is 3.40% and 4.06% and 3.95% and 4.77%.

Q: What about the “T cells, % of living cells” value (immune cells; tumor mice (KAP metastases)) of the same compound?
A: Its value is 38.40% and 29.30% and 31.40% and 31.30%.

Q: And the viability at 5 µM ([2]; healthy human colon organoids SCC311, 2015 0,5 µM)?
A: Its viability at 5 µM is 96%.

Q: What about the viability at 25 µM ([2]; healthy human colon organoids SCC311, 2015 0,25 µM) of the same compound?
A: Its viability at 25 µM is 113%.

Q: And the “Cell viability (%)” value ([3]; 2015 0,5 µM, 5 µM)?
A: The value was 94.54% and 77.32%.

Q: What about the “Cell viability (%)” value ([3]; 2015 0,25 µM, 25 µM) of the same compound?
A: Its value is 97.45% and 99.37%.

Q: What about the “Cell viability (%)” value ([3]; 2015 1 µM) of the same compound?
A: The value was 74.60% and 77.39% and 95.83%.

Q: And the “response of healthy human colon culture (in words)” value ([3]; SCC311, 4 d)?
A: The value was “only a very weak response”.

Q: What about the “senescence (SA-β-Gal, p16^Ink4a, HMGA2) (in words)” value (KAP^2D cells) of the same compound?
A: Its value is “clear senescence phenotype”.

Q: And the “Survival (d of treatment)” value (KMP primary CRCs; individual mice, KMP primary CRC, treatment started 9 days after transplantation)?
A: Its value is 24 days and 15 days and 11 days and 25 days and 21 days and 13 days and 18 days.

Q: What about the “Kaplan–Meier event entry in 2015 (1 or 0)” value (KMP primary CRCs; individual mice, KMP primary CRC, meaning of 1/0 not given) of the same compound?
A: The value was 1 and 0.

Q: And the “survival of mice with KMP primary CRC (in words)” value (KMP primary CRCs; start 9 days after organoid injection)?
A: Its value is “significantly prolonged survival”.
